Reference: patent US8603527B2, “Pharmaceutical formulations of a substituted diaminopurine” (Signal Pharmaceuticals, LLC, priority 2010, dated 2013)

Assay: Pharmacokinetics (plasma and urine) of ascending multiple oral doses in healthy volunteers
Format: in vivo, human
Set-up: Cmax: unit: ng/mL
Conditions: for AUC(0-∞) / Cmax / Ctrough / RA (ratio of accumulation) / t1/2 / Tmax: Day 14 (N = 8); for AUC(0-∞) / Cmax / Ctrough / RA (ratio of accumulation) / t1/2 / AUC(0-τ): geometric mean; for Tmax: median; for AUC(0-τ): Day 14, τ = 24 hours (N = 8)
Text: Subjects: Forty healthy male and female subjects between the ages of 20 and 50 were enrolled in the study. All subjects were in good health as determined by a medical history, physical examination, 12-lead ECG, serum biochemistry, hematology, urinalysis and virology. Subjects were not permitted to take any prescribed medication within 30 days or non-prescribed medication within 7 days of the first dose administration.
Study Design: This study was a randomized, double-blind, placebo-controlled, ascending-dose trial to evaluate the safety, tolerability and pharmacokinetics (PK) of multiple oral doses of Compound I. Subjects were enrolled into 1 of the 4 cohorts, 10 subjects per cohort (active:placebo=8:2). Subjects received a multiple oral dose of 25, 50, 100, or 200 mg unformulated Compound I in a capsule, or matching placebo, once daily (QD) for 14 days.
Assessments: Safety and tolerability were assessed by adverse event (AE) monitoring, clinical laboratory testing, vital sign measurement, 12-lead ECG measurement, concomitant medication assessment, and physical examination. Blood and urine samples were collected to assess the PK profile of Compound I and the S-cis isomer of Compound I. Blood samples (˜5 mL) for plasma PK analysis were collected in K2-EDTA vacutainer tubes to yield approximately 2 mL of plasma at each of the following time points: (i) Day 1: before dosing, and 0.25, 0.5, 1, 1.5, 2, 2.5, 3, 4, 6, 8, 10, 12, 16, and 24 hours after dosing; (ii) Day 3 to Day 9: before dosing; (iii) Day 10: before dosing, and 0.25, 0.5, 1, 1.5, 2, 2.5, 3, 4, 6, 8, 10, 12, and 16 hours after dosing; (iv) Day 11 to Day 13: before dosing; (v) Day 14: before dosing, and 0.25, 0.5, 1, 1.5, 2, 2.5, 3, 4, 6, 8, 10, 12, 16, 24, 48, 72, 96, 120, 144, and 168 hours after dosing. Urine samples for the PK analysis were collected as a single block at: (i) Day 1: before dosing (spot collection), 0 to 8, 8 to 16, and 16 to 24 hours after dosing; and (ii) Day 14: 0 to 8, 8 to 16, and 16 to 24 hours after dosing. Both plasma and urine concentrations of Compound I and its S-cis isomer were measured using validated liquid chromatography-tandem mass spectrometry (LC/MS/MS).
Data Analysis: Safety data were summarized using descriptive statistics by treatment. PK parameters for Compound I and its S-cis isomer were calculated using non-compartmental analysis using WinNonlin (Version 5.0.1 or greater; Pharsight Corporation, Mountain View, Calif.). Dose proportionality and dose independence were evaluated by visual inspection. Intra-subject variability was assessed using an ANOVA model using data from Days 10 and 14.

[1] = S-cis isomer in plasma after Compound I 25 mg QD
[2] = S-cis isomer in plasma after Compound I 50 mg QD
[3] = S-cis isomer in plasma after Compound I 100 mg QD
[4] = S-cis isomer in plasma after Compound I 200 mg QD

AUC(0-∞) [1]: 180.14 ng·h/mL | Cmax [1]: 5.43 ng/mL | Ctrough [1]: 2.33 ng/mL | RA (ratio of accumulation) [1]: 2.02 | t1/2 [1]: 28.82 h | Tmax [1]: 2.5 h | AUC(0-τ) [1]: 78.40 ng·h/mL | AUC(0-∞) [2]: 365.88 ng·h/mL | Cmax [2]: 11.61 ng/mL | Ctrough [2]: 4.93 ng/mL | RA (ratio of accumulation) [2]: 2.28 | t1/2 [2]: 25.39 h | Tmax [2]: 3.0 h | AUC(0-τ) [2]: 177.01 ng·h/mL | AUC(0-∞) [3]: 541.06 ng·h/mL | Cmax [3]: 14.87 ng/mL | Ctrough [3]: 7.14 ng/mL | RA (ratio of accumulation) [3]: 1.88 | t1/2 [3]: 28.17 h | Tmax [3]: 2.5 h | AUC(0-τ) [3]: 237.26 ng·h/mL | AUC(0-∞) [4]: 804.07 ng·h/mL | Cmax [4]: 27.69 ng/mL | Ctrough [4]: 10.90 ng/mL | RA (ratio of accumulation) [4]: 1.50 | t1/2 [4]: 23.93 h | Tmax [4]: 2.5 h | AUC(0-τ) [4]: 404.33 ng·h/mL | systemic exposure relative to that of Compound I (after Compound I QD dosing): about 2%
Structure (SMILES): OC1CCC(Nc2ncc3nc(Nc4c(F)cc(F)cc4F)n(C4CCOC4)c3n2)CC1 (stereo not drawn) [S-cis isomer of Compound I]
